US20240024273A1, “TOPICAL ADMINISTRATION OF 2-(DIETHYLAMINO)ETHYL 2-(4-ISOBUTYLPHENYL)PROPRIONATE FOR TREATMENT OF DISEASES” (TECHFIELDS PHARMA CO., LTD., priority 2020, published 2024)
Like-named read-outs stand apart in the source and are kept apart here.

What was measured:
[1] = tested on: Collagen II induced arthritis; experiment: Collagen II induced arthritis; type: in vivo, Lewis rats; conditions: 10, 30 and 90 mg/kg daily, topical
LPS induced fever = LPS induced fever model; type: in vivo, SD Rats; conditions: 30 and 90 mg/kg; 4 and 6 hour time points
Sprague Dawley rats = experiment: Behavioral effects, functional observational battery; type: in vivo; conditions: single dermal dose 50, 250, 750 mg/kg
dogs = experiment: Cardiovascular telemetry study in the unrestrained conscious non-naïve dog; type: in vivo; conditions: dermal 10, 25 and 50 mg/kg; up to 48 hours
[2] = Phase 1 clinical study: plasma pharmacokinetics of prodrug and ibuprofen; type: in vivo, human; conditions: for AUC0-12: read-out: prodrug AUC0-12; for AUC(0-t): read-out: prodrug AUClast; for Cmax: read-out: prodrug Cmax; for Tmax: read-out: prodrug Tmax, median (range); for half-life: read-out: prodrug t1/2 (converted)
Experimental: Following a 5-day washout period, 2-(diethylamino)ethyl 2-(4-isobutylphenyl)propionate was administered b.i.d. during Days 6-11, and a morning dose only was administered to Day 12. Blood samples were collected for PK analysis over the 120-hour post-dose period following the Day 12 dose. Additionally, pre-dose blood samples were collected on Day 7 through Day 11 to evaluate steady-state status.
The same study procedures were followed as described in Part 1.
For single dose PK, serial blood samples were collected on Day 1 dose at the following time points: 0 (pre-dose), 0.25, 0.5, 0.75, 1, 1.5, 2, 2.5, 3, 4, 5, 6, 8, 10, 12, 18, 24, 48, 72, 96 and 120 hours post-dose.
For multiple-dose PK, serial blood samples were collected on Day 12 at the following time points: 0 (pre-dose), 0.25, 0.5, 0.75, 1, 1.5, 2, 2.5, 3, 4, 5, 6, 8, 10, 12, 18, 24, 48, 72, 96 and 120 hours post-dose.
The relative bioavailability of the single dose 70 mg topical application vs. 70 mg spray application was determined based on AUCtau, AUCinf and Cmax. The 90% confidence intervals (CIs) on the ratio of topical application vs. spray application were calculated.

[3] = Second Phase 2 study: plasma ibuprofen pharmacokinetics; type: in vivo, human; conditions: low dose levels (below 35 mg/day)
Experimental: All subjects enrolled at designated sites that have the capability to keep subjects overnight will be included in the PK subgroup until PK samples for 40 subjects per treatment group have been collected. […] At the Week 12/EOS visit, PK blood samples can be collected predose and at 2, 4, and 6 hours postdose. Subjects will only receive the morning dose at the Week 12/EOS visit.
Thus only ibuprofen was analyzed in this trial.

[4] = In vitro half-life with animal skin; type: in vitro ADME; conditions: read-out: in vitro T1/2 (converted)
[5] = human, plasma, topical or ocular, 17.5 mg, Day 1, 17.5 mg topical
[6] = human, plasma, topical or ocular, 17.5 mg, Day 12, 17.5 mg b.i.d. topical
[7] = human, plasma, topical or ocular, 35 mg, Day 1, 35 mg topical
[8] = human, plasma, topical or ocular, 35 mg, Day 12, 35 mg b.i.d. topical
[9] = human, plasma, topical or ocular, 70 mg, Day 1, 70 mg topical
[10] = human, plasma, topical or ocular, 70 mg, Day 12, 70 mg b.i.d. topical
[11] = human, plasma, topical or ocular, 140 mg, Day 1, 140 mg topical
[12] = human, plasma, topical or ocular, 140 mg, Day 12, 140 mg b.i.d. topical
[13] = human, plasma, topical or ocular, 280 mg, Day 1, 280 mg topical
[14] = human, plasma, topical or ocular, 280 mg, Day 12, 280 mg b.i.d. topical
[15] = human, plasma, topical, 70 mg, Day 1, 70 mg spray
[16] = human, plasma, topical, 70 mg, Day 12, 70 mg b.i.d. spray

With `CCN(CC)CCOC(=O)C(C)c1ccc(CC(C)C)cc1` (centres unmarked) [2-(diethylamino)ethyl 2-(4-isobutylphenyl)propionate] the “onset of the disease” value [1] was “postponed the onset of the disease”, the LPS induced fever (LPS induced fever) was “LPS induced fever was attenuated by middle (30 mg/kg) and high” and the “neurobehavioral changes (FOB test)” value (Sprague Dawley rats) was 250, and 750 mg/kg of ibuprofenamine were not associated with any. The “qualitative ECG parameters” value (dogs) was 25, and 50 mg/kg of ibuprofenamine and vehicle in dogs. There were no effects, the “dose proportionality of prodrug and ibuprofen Cmax and AUC0-last” value ([2]; 17.5 mg to 280 mg, single and multiple) was “did not increase in a dose-proportional manner” and the “prodrug mean Cmax after 7 days b.i.d., increase” value ([2]; 140 mg and 280 mg doses) was “about 2 fold”. For the same compound, the “prodrug Kel” value ([2]; Day 12, 17.5 mg b.i.d. topical) was 0.0241 (N/A) 1/h, the “prodrug Kel” value ([2]; Day 12, 70 mg b.i.d. topical) was 0.0656 (N/A) 1/h and the “prodrug Kel” value ([2]; Day 12, 140 mg b.i.d. topical) was 0.0398 (N/A) 1/h. The “prodrug Kel” value ([2]; Day 12, 280 mg b.i.d. topical) was 0.0374 (0.0310) 1/h, the “conversion of absorbed prodrug to ibuprofen” value ([2]; human, in vivo) was > 99% and the AUC0-12 [2, 5] was 0.837 ng·h/mL. It also gave an AUC(0-t) [2, 5] of 1.45 ng·h/mL, a Cmax [2, 5] of 0.158 ng/mL and a Tmax [2, 5] of 8 h. The AUC0-12 [2, 6] was 0.809 ng·h/mL, the AUC(0-t) [2, 6] was 1.31 ng·h/mL and the Cmax [2, 6] was 0.092 ng/mL. The Tmax [2, 6] was 8 h, the AUC0-12 [2, 7] was 0.34 ng·h/mL and the AUC(0-t) [2, 7] was 0.864 ng·h/mL. For the same compound, the Cmax [2, 7] was 0.0862 ng/mL, the Tmax [2, 7] was 11 h and the AUC0-12 [2, 8] was 1.21 ng·h/mL. The AUC(0-t) [2, 8] was 2.29 ng·h/mL, the Cmax [2, 8] was 0.153 ng/mL and the Tmax [2, 8] was 5.12 h. For the same compound, the AUC0-12 [2, 9] was 0.836 ng·h/mL, the AUC(0-t) [2, 9] was 1.99 ng·h/mL and the Cmax [2, 9] was 0.16 ng/mL. It also gave a Tmax [2, 9] of 10 h, an AUC0-12 [2, 10] of 1.1 ng·h/mL and an AUC(0-t) [2, 10] of 1.49 ng·h/mL. It also gave a Cmax [2, 10] of 0.162 ng/mL, a Tmax [2, 10] of 3.5 h and an AUC0-12 [2, 11] of 0.478 ng·h/mL. It also gave an AUC(0-t) [2, 11] of 1.45 ng·h/mL, a Cmax [2, 11] of 0.116 ng/mL and a Tmax [2, 11] of 18 h. The AUC0-12 [2, 12] was 1.82 ng·h/mL, the AUC(0-t) [2, 12] was 3.6 ng·h/mL and the Cmax [2, 12] was 0.305 ng/mL. The Tmax [2, 12] was 2.5 h, the AUC0-12 [2, 13] was 0.675 ng·h/mL and the AUC(0-t) [2, 13] was 4.48 ng·h/mL. For the same compound, the Cmax [2, 13] was 0.233 ng/mL, the Tmax [2, 13] was 18 h and the AUC0-12 [2, 14] was 3.71 ng·h/mL. It also gave an AUC(0-t) [2, 14] of 11.6 ng·h/mL, a Cmax [2, 14] of 0.505 ng/mL and a Tmax [2, 14] of 0.25 h. For the same compound, the half-life ([2]; human, plasma, topical or ocular, Day 12, 17.5 mg b.i.d. topical) was 28.8 h, the half-life ([2]; human, plasma, topical or ocular, Day 12, 70 mg b.i.d. topical) was 10.6 h and the half-life ([2]; human, plasma, topical or ocular, Day 12, 140 mg b.i.d. topical) was 17.4 h. The AUC(0-inf) ([2]; human, plasma, topical or ocular, Day 12, 280 mg b.i.d. topical, read-out: prodrug AUCinf) was 18.1 ng·h/mL, the half-life ([2]; human, plasma, topical or ocular, Day 12, 280 mg b.i.d. topical) was 37.8 h and the AUC0-12 [2, 15] was 0.514 ng·h/mL. It also gave an AUC(0-t) [2, 15] of 0.947 ng·h/mL, a Cmax [2, 15] of 0.119 ng/mL and a Tmax [2, 15] of 10 h. For the same compound, the AUC0-12 [2, 16] was 1.06 ng·h/mL, the AUC(0-t) [2, 16] was 2.62 ng·h/mL and the Cmax [2, 16] was 0.185 ng/mL. For the same compound, the Tmax [2, 16] was 3 h, the “relative bioavailability of spray vs topical application (plasma ibuprofen)” value ([2]; single application, 70 mg) was “lower” and the “time by which all subjects had measurable plasma prodrug levels” value ([2]; topical application) was ≤ 3 hours post-dose. For the same compound, the “detectability of prodrug in plasma” value [3] was “cannot be detected in most of subjects' plasma” and the half-life [4] was ~20 h.
